# Like-named read-outs stand apart in the source and are kept apart here.
# Assays:
# [1] = test system: bloodstream-form trypanosome T. brucei brucei 427 strain; assay: Trypanosoma brucei brucei high-throughput in vitro drug sensitivity assay (resazurin); assay type: cell-based; settings: for Selectivity Index (L929 IC50 / T. b. brucei IC50): T. b. brucei vs L929; for IC50: Trypanosoma brucei
# [2] = Kinetic solubility by nephelometric (light scattering) method; assay type: physicochemical; settings: phosphate buffered saline, aqueous buffer, kinetic from dmso stock, PBS pH 7.4
# Method: The kinetic solubilities of compounds were estimated using a nephelometric (light scattering) method. Briefly, compounds were serially diluted in DMSO, followed by dilution in PBS pH 7.4. After incubation, the amount of light scattered by a compound at each concentration was measured. […] At concentrations above the solubility limit, the compound precipitates and the precipitant in the well scatters the light, generating a signal. Higher levels of precipitant in a well scatter more light and produce a stronger signal.
# A stock solution of compound (25 mM in DMSO) was prepared, and was serially diluted in DMSO in two-fold increments in a row of a 96 well plate to a lowest concentration of 24 μM. A duplicate plate was prepared by transfer of half of the volume of each well to a new plate. Each well containing DMSO solution of the test compound was then diluted further (1:100) with phosphate buffered saline (pH 7.4) to provide aqueous solutions of compound at the following final concentrations: 250, 125, 62.5, 31.3, 15.6, 7.8, 3.9, 2.0, 1.0, 0.5 and 0.2 μM. All liquid handling stages were performed on a Beckman Coulter Biomek NX Laboratory Automation Workstation. Each compound was diluted and tested in duplicate, providing four separate wells at each test concentration.
# The test solutions of compound were incubated at room temperature for 90 minutes and then analyzed using a Thermoskan Ascent nephelometric plate reader. The nephelometer protocol included two steps: first, the plate was shaken for 60 seconds at 1200 rpm, then each well of the plate was read in succession with an 800 ms settling delay between measurements. The total measurement time for a single plate was less than 4 minutes.
# The four values (in nephelometric units) obtained for each compound at each concentration were averaged and plotted on a log scale versus concentration.
# [3] = L929 cytotoxicity evaluation (resazurin); assay type: cell-based; settings: mouse, L929 mouse fibroblast cells; 72 hrs incubation; read-out: Cytotox L-929 IC50
# In short: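 Mouse L929 fibroblasts (1×10^4/mL seeding, attached overnight) were treated 72 h at 37 °C, 5% CO2 with serially diluted compounds in DMSO in D-MEM/10% FBS. Viability read by resazurin fluorescence after 3–4 h (ex 544/em 590 nm); IC50 from sigmoidal fits of single data points.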
# [4] = 72 hrs incubation, read-out: T. b. brucei IC50
# [5] = 72 hrs incubation, read-out: T.b. brucei IC50
# [6] = 72 h, read-out: T.b. brucei IC50 (ug/mL)
SMILES,Selectivity Index (L929 IC50 / T. b. brucei IC50) [1],"IC50 [1, 4]","IC50 [1, 5]",solubility at 90 min [2],IC50 at 72 h [3],"IC50 [1, 6]","IC50 ([1]; 72 h, read-out: T. b. brucei IC50 (nM))"
"Cc1ccc(C(=O)Nc2ccc3c(c2)B(O)OC3C)cc1 (stereo not drawn) [compound 7, N-(1-Hydroxy-3-methyl-1,3-dihydro-benzo[c][1,2]oxaborol-6-yl)-4-methyl-benzamide]",137,146 nM,0.041 µg/mL,100 µM,5.61 µg/mL,–,–
"CC1OB(O)c2cc(NC(=O)c3ccccc3F)ccc21 (stereo not drawn) [compound 8, 2-Fluoro-N-(1-hydroxy-3-methyl-1,3-dihydro-benzo[c][1,2]oxaborol-6-yl)-benzamide]",84,246 nM,0.07 µg/mL,50 µM,5.86 µg/mL,–,–
"CC1OB(O)c2cc(NC(=O)c3ccc(Cl)cc3)ccc21 (stereo not drawn) [compound 9, 4-Chloro-N-(1-hydroxy-3-methyl-1,3-dihydro-benzo[c][1,2]oxaborol-6-yl)-benzamide]",>208,159 nM,0.048 µg/mL,25 µM,> 10 µg/mL,–,–
"CC1OB(O)c2cc(NC(=O)c3ccc(F)cc3F)ccc21 (stereo not drawn) [compound 12, 2,4-Difluoro-N-(1-hydroxy-3-methyl-1,3-dihydro-benzo[c][1,2]oxaborol-6-yl)-benzamide]",>123,267 nM,0.081 µg/mL,100 µM,> 10 µg/mL,–,–
"CC1OB(O)c2cc(NC(=O)c3ccc(F)cc3Cl)ccc21 (stereo not drawn) [compound 13, 2-Chloro-4-fluoro-N-(1-hydroxy-3-methyl-1,3-dihydro-benzo[c][1,2]oxaborol-6-yl)-benzamide]",47,135 nM,0.043 µg/mL,> 200 µM,2 µg/mL,–,–
"CC1OB(O)c2cc(NC(=O)c3ccccc3Br)ccc21 (stereo not drawn) [compound 14, 2-Bromo-N-(1-hydroxy-3-methyl-1,3-dihydro-benzo[c][1,2]oxaborol-6-yl)-benzamide]",39,124 nM,0.043 µg/mL,100 µM,1.67 µg/mL,–,–
"O=C(Nc1ccc2c(c1)B(O)OC2C1CCCC1)c1ccccc1C(F)(F)F (stereo not drawn) [compound 17, N-(3-Cyclopentyl-1-hydroxy-1,3-dihydro-benzo[c][1,2]oxaborol-6-yl)-2-trifluoromethyl-benzamide]",>15,1680 nM,0.655 µg/mL,25 µM,> 10 µg/mL,–,–
"O=C(Nc1ccc2c(c1)B(O)OC2C1CCCC1)c1ccc(F)cc1C(F)(F)F (stereo not drawn) [compound 19, N-(3-Cyclopentyl-1-hydroxy-1,3-dihydro-benzo[c][1,2]oxaborol-6-yl)-4-fluoro-2-trifluoromethyl-benzamide]",>3,7810 nM,3.18 µg/mL,100 µM,> 10 µg/mL,–,–
"CC(C)CC1OB(O)c2cc(NC(=O)c3ccc(F)cc3C(F)(F)F)ccc21 (stereo not drawn) [compound 23, 4-Fluoro-N-(1-hydroxy-3-isobutyl-1,3-dihydro-benzo[c][1,2]oxaborol-6-yl)-2-trifluoromethyl-benzamide]",>4,6100 nM,2.41 µg/mL,25 µM,> 10 µg/mL,–,–
"CC1(C)OB(O)c2cc(NC(=O)c3ccccc3)ccc21 [compound 26, N-(1-Hydroxy-3,3-dimethyl-1,3-dihydro-benzo[c][1,2]oxaborol-6-yl)-benzamide]",–,–,> 5 µg/mL,200 µM,> 10 µg/mL,–,–
"CC(C)(C)c1ccc(C(=O)Nc2ccc3c(c2)B(O)OC3(C)C)cc1 [compound 33, 4-tert-Butyl-N-(1-hydroxy-3,3-dimethyl-1,3-dihydro-benzo[c][1,2]oxaborol-6-yl)-benzamide]",–,–,0.229 µg/mL,6 µM,> 10 µg/mL,–,–
"CC1(C)OB(O)c2cc(NC(=O)c3ccccc3C(F)(F)F)ccc21 [compound 34, N-(1-Hydroxy-3,3-dimethyl-1,3-dihydro-benzo[c][1,2]oxaborol-6-yl)-2-trifluoromethyl-benzamide]",>94,304 nM,0.106 µg/mL,50 µM,> 10 µg/mL,–,–
"CC1(C)OB(O)c2cc(NC(=O)c3ccccc3Cl)ccc21 [compound 38, 2-Chloro-N-(1-hydroxy-3,3-dimethyl-1,3-dihydro-benzo[c][1,2]oxaborol-6-yl)-benzamide]",>60,532 nM,0.168 µg/mL,13 µM,> 10 µg/mL,–,–
"CC1(C)OB(O)c2cc(NC(=O)c3ccccc3Br)ccc21 [compound 39, 2-Bromo-N-(1-hydroxy-3,3-dimethyl-1,3-dihydro-benzo[c][1,2]oxaborol-6-yl)-benzamide]",>44,631 nM,0.227 µg/mL,50 µM,> 10 µg/mL,–,–
"CC1(C)OB(O)c2cc(NC(=O)c3ccc(F)cc3)ccc21 [compound 44, 4-Fluoro-N-(1-hydroxy-3,3-dimethyl-1,3-dihydro-benzo[c][1,2]oxaborol-6-yl)-benzamide]",–,> 16700 nM,> 5 µg/mL,100 µM,> 10 µg/mL,–,–
"CC1(C)OB(O)c2cc(NC(=O)c3ccc(Cl)cc3Cl)ccc21 [compound 65, 2,4-Dichloro-N-(1-hydroxy-3,3-dimethyl-1,3-dihydro-benzo[c][1,2]oxaborol-6-yl)-benzamide]",–,–,0.278 µg/mL,50 µM,> 10 µg/mL,–,–
"CC1(C)OB(O)c2cc(NC(=O)c3ccc(Br)cc3Cl)ccc21 [compound 76, 4-Bromo-2-chloro-N-(1-hydroxy-3,3-dimethyl-1,3-dihydro-benzo[c][1,2]oxaborol-6-yl)-benzamide]",–,–,0.185 µg/mL,25 µM,> 10 µg/mL,–,–
"CC(C)c1ccc(C(=O)Nc2ccc3c(c2)B(O)OC3(C)C)c(Cl)c1 [compound 101, 2-Chloro-N-(1-hydroxy-3,3-dimethyl-1,3-dihydro-benzo[c][1,2]oxaborol-6-yl)-4-isopropyl-benzamide]",–,–,–,25 µM,8.43 µg/mL,0.05 µg/mL,–
"Cc1ccc(F)c(C(=O)Nc2ccc3c(c2)B(O)OC3(C)C)c1Cl [compound 107, 2-Chloro-6-fluoro-N-(1-hydroxy-3,3-dimethyl-1,3-dihydro-benzo[c][1,2]oxaborol-6-yl)-3-methyl-benzamide]",–,–,0.566 µg/mL,4.3 µM,> 10 µg/mL,–,–
"CC1(C)OB(O)c2cc(NC(=O)c3ccc4ccccc4c3)ccc21 [compound 112, Naphthalene-2-carboxylic acid (1-hydroxy-3,3-dimethyl-1,3-dihydrobenzo[c][1,2]oxaborol-6-yl)-amide]",–,–,0.278 µg/mL,50 µM,> 10 µg/mL,–,–
"CC1(C)OB(O)c2cc(NC(=O)c3ccccn3)ccc21 [compound 114, Pyridine-2-carboxylic acid (1-hydroxy-3,3-dimethyl-1,3-dihydro-benzo[c][1,2]oxaborol-6-yl)-amide]",–,–,> 5 µg/mL,100 µM,> 10 µg/mL,–,–
O=C(Nc1ccc2c(c1)B(O)OC21CCC1)c1ccc(F)cc1C(F)(F)F [compound 134],>30,–,–,100 µM,> 10 µg/mL,0.338 µg/mL,892 nM
O=C(Nc1ccc2c(c1)B(O)OC21CCC1)c1ccc(F)cc1Cl [compound 135],>58,498 nM,0.172 µg/mL,25 µM,> 10 µg/mL,–,–
O=C(Nc1ccc2c(c1)B(O)OC21CCCC1)c1ccc(F)cc1C(F)(F)F [compound 136],–,> 12700 nM,> 5 µg/mL,25 µM,> 10 µg/mL,–,–

# — patent US20110190235A1, “BORON-CONTAINING SMALL MOLECULES AS ANTIPROTOZOAL AGENTS” (Anacor Pharmaceuticals, Inc., priority 2009, published 2011)
